Starred links: 1 amine or outer side, 2 acyl side, 3 side chain; linkers in the order of their positions; H or OH if unused. Positions of bridges follow the written chain, without caps; N, C: chain ends. Non-standard residues stand in square brackets, D forms with d. Residues, ends and D or L forms follow the SMILES beside them. No end group written: not given here. *: point of attachment. DOTA = O=C(O)CN1CCN(CC(=O)O)CCN(CC(=O)*)CCN(CC(=O)O)CC1; NGly(3-aminopropyl) = O=C(CN(CCCN[*:3])[*:1])[*:2]; mXylylene = c1cc(C[*:1])cc(C[*:2])c1; APAc = not defined here

For one assay, the target named is T1, CAIX-expressing human HT-29 colorectal cancer cells (Homo sapiens, UniProt Q16790).
T1 construct: CAIX-expressing human HT-29 colorectal cancer cells; host or cells: HT-29 human colorectal cancer cells
In words: FACS binding assay (IC50 determination, competition with tracer 3BP-2776 or 3BP-4149). Particulars: FACS binding assay, HT-29 cells, competition with tracer 3BP-2776 (10 nM, biotin-labeled), 4° C., 1 hour. The method, then: In order to determine binding of compounds according to the present invention to CAIX-expressing cells, a FACS binding assay was established.
CAIX-expressing human HT-29 colorectal cancer cells (DSMZ, RRID: CVCL_0320) were cultured in McCoys's 5A modified medium (Biochrom, #F1015) including 10% fetal calf serum (FCS), 2 mM L-glutamine, 100 U/ml penicillin and 100 μg/mL streptomycin. Cells were detached with Accutase (Biolegend, #423201) and washed in FACS buffer (PBS including 1% FCS). Cells were diluted in FACS buffer to a final concentration of 500.000 cells per ml. 200 μL of the cell suspension were transferred to a u-shaped non-binding 96-well plate (Greiner) and cells were washed in ice-cold FACS buffer.
When biotinylated compounds were used an additional incubation step with 1 μg/mL APC-Streptavidin (Miltenyi; #130-106-791) in 50 μL FACS buffer for 30 minutes on ice was performed.
Cells were washed twice with ice-cold FACS buffer and analyzed in an Attune NxT flow cytometer (Thermo Fisher). Median fluorescence intensities (MFI) of the APC/Cy5-channel were calculated by Attune NxT software. MFI values were plotted against peptide concentration and four parameter logistic (4PL) curve fitting and EC50/pEC50 or IC50/pIC50 calculations were performed using ActivityBase software.
On the technique in general: A flow cytometer gives signals particle by particle.
Take “3BP-4178 ([dP]PVYCE[dP]DWLTWSC; linker 5-14 via mXylylene; not fully specified (bridges))”: the “pIC50 category (activity)” value is recorded as “A (pIC50 values >8.0)”.
Consider “3BP-4252 ({DOTA-APAc}-VYCEG[NGly(3-aminopropyl)]WLEWSC-NH2; linker 3-12 via mXylylene; lactam 6-9; reading uncertain)”, for which the “pIC50 category (activity)” value was “B (pIC50 values between 7.1 and 8.0)”.

The same assay, now with this note: FACS competition on HT-29 cells, Tracer ID 3BP-2776 (10 nM, biotin-labeled), 4° C., 1 hour; read-out: pIC50 category (activity) (converted).
`CSCC[C@H](NC(C)=O)C(=O)N[C@H](C(=O)N[C@@H](Cc1ccc(O)cc1)C(=O)N[C@H]1CSCc2cccc(c2)CSC[C@@H](C(N)=O)NC(=O)[C@H](CCC(N)=O)NC(=O)[C@H](Cc2c[nH]c3ccccc23)NC(=O)[C@H]([C@@H](C)O)NC(=O)[C@H](CC(C)C)NC(=O)[C@H](Cc2c[nH]c3ccccc23)NC(=O)[C@H](CC(=O)O)NC(=O)CNC(=O)[C@H](CCC(=O)O)NC1=O)C(C)C` [3BP-2836] (Ac-MVYCEGDWLTWQC-NH2; linker 4-13 via mXylylene): the IC50 was 100 to 794 nM.
On the same count and under the same terms, with `CC(=O)N[C@@H](C(=O)N[C@@H](Cc1ccc(O)cc1)C(=O)N[C@H]1CSCc2cccc(c2)CSC[C@@H](C(N)=O)NC(=O)[C@H](CCC(N)=O)NC(=O)[C@H](Cc2c[nH]c3ccccc23)NC(=O)[C@H]([C@@H](C)O)NC(=O)[C@H](CC(C)C)NC(=O)[C@H](Cc2c[nH]c3ccccc23)NC(=O)[C@H](CC(=O)O)NC(=O)CNC(=O)[C@H](CCC(=O)O)NC1=O)C(C)C` [3BP-3043] (Ac-[dV]YCEGDWLTWQC-NH2; linker 3-12 via mXylylene) the figure was 10 to 79.4 nM; with `CC(=O)N[C@H](C(=O)N[C@H](Cc1ccc(O)cc1)C(=O)N[C@H]1CSCc2cccc(c2)CSC[C@@H](C(N)=O)NC(=O)[C@H](CCC(N)=O)NC(=O)[C@H](Cc2c[nH]c3ccccc23)NC(=O)[C@H]([C@@H](C)O)NC(=O)[C@H](CC(C)C)NC(=O)[C@H](Cc2c[nH]c3ccccc23)NC(=O)[C@H](CC(=O)O)NC(=O)CNC(=O)[C@H](CCC(=O)O)NC1=O)C(C)C` [3BP-3044] (Ac-V[dY]CEGDWLTWQC-NH2; linker 3-12 via mXylylene), 100 to 794 nM; with `CC(=O)N[C@H](C(=O)N[C@@H](Cc1ccc(O)cc1)C(=O)N[C@H]1CSCc2cccc(c2)CSC[C@@H](C(N)=O)NC(=O)[C@H](CCC(N)=O)NC(=O)[C@H](Cc2c[nH]c3ccccc23)NC(=O)[C@H]([C@@H](C)O)NC(=O)[C@H](CC(C)C)NC(=O)[C@H](Cc2c[nH]c3ccccc23)NC(=O)[C@H](CC(=O)O)NC(=O)CNC(=O)[C@@H](CCC(=O)O)NC1=O)C(C)C` [3BP-3045] (Ac-VYC[dE]GDWLTWQC-NH2; linker 3-12 via mXylylene), 100 to 794 nM.
Still for that read-out and setting: in the case of `CC(=O)N[C@H](C(=O)N[C@@H](Cc1ccc(O)cc1)C(=O)N[C@H]1CSCc2cccc(c2)CSC[C@@H](C(N)=O)NC(=O)[C@H](CCC(N)=O)NC(=O)[C@H](Cc2c[nH]c3ccccc23)NC(=O)[C@H]([C@@H](C)O)NC(=O)[C@H](CC(C)C)NC(=O)[C@H](Cc2c[nH]c3ccccc23)NC(=O)[C@H](CC(=O)O)NC(=O)[C@@H](C)NC(=O)[C@H](CCC(=O)O)NC1=O)C(C)C` [3BP-3046] (Ac-VYCE[dA]DWLTWQC-NH2; linker 3-12 via mXylylene) it was below 10 nM.
Still for that read-out and setting: in the case of `CC(=O)N[C@H](C(=O)N[C@@H](Cc1ccc(O)cc1)C(=O)N[C@H]1CSCc2cccc(c2)CSC[C@@H](C(N)=O)NC(=O)[C@H](CCC(N)=O)NC(=O)[C@H](Cc2c[nH]c3ccccc23)NC(=O)[C@H]([C@@H](C)O)NC(=O)[C@H](CC(C)C)NC(=O)[C@H](Cc2c[nH]c3ccccc23)NC(=O)[C@@H](CC(=O)O)NC(=O)CNC(=O)[C@H](CCC(=O)O)NC1=O)C(C)C` [3BP-3047] (Ac-VYCEG[dD]WLTWQC-NH2; linker 3-12 via mXylylene) it was 100 to 794 nM.

For the origin of these results see patent publication US20250339569A1, “CARBONIC ANHYDRASE IX LIGANDS” (priority 2021, published 2025).
